One compound from publication PMC5218480 (PLoS ONE, 2017) can be followed below.

For the assay, the system named is MV-4-11 cells. The experiment in a line: Gene expression microarray analysis (Affymetrix PrimeView) and GSEA. It is filed as cell-based, human. More on the design: RFU PODN (11730768_x_at) / Fold change /veh PODN (11730768_x_at) / RFU LINC00158 (11744669_a_at) / Fold change /veh LINC00158 (11744669_a_at) / RFU DUSP10 (11751237_a_at) / Fold change /veh DUSP10 (11751237_a_at) / RFU ID3 (11757404_x_at) / Fold change /veh ID3 (11757404_x_at) / RFU PLEKHG5 (11737974_s_at) / Fold change /veh PLEKHG5 (11737974_s_at) / RFU LRRC4B (11730491_at) / Fold change /veh LRRC4B (11730491_at) / RFU GIMAP4 (11747438_a_at) / Fold change /veh GIMAP4 (11747438_a_at) / RFU KRT8 (11758183_x_at) / Fold change /veh KRT8 (11758183_x_at) / RFU CNN1 (11734310_a_at) / Fold change /veh CNN1 (11734310_a_at) / RFU VPS37D (11726825_at) / Fold change /veh VPS37D (11726825_at) / RFU C10orf10 (11716522_x_at) / Fold change /veh C10orf10 (11716522_x_at) / RFU KIR2DL2 /// KIR2DL4 /// KIR2DL5A /// KIR2DL5B /// KIR2DS1 /// KIR2DS2 /// KIR2DS3 /// KIR2DS4 /// KIR3DL3 /// KIR3DL3 /// KIR3DS1 (11738374_at) / Fold change /veh KIR2DL2 /// KIR2DL4 /// KIR2DL5A /// KIR2DL5B /// KIR2DS1 /// KIR2DS2 /// KIR2DS3 /// KIR2DS4 /// KIR3DL3 /// KIR3DL3 /// KIR3DS1 (11738374_at) / RFU C1QL1 (11718748_at) / Fold change /veh C1QL1 (11718748_at) / RFU TMPRSS4 (11747572_a_at) / Fold change /veh TMPRSS4 (11747572_a_at) / RFU HAMP (11756126_x_at) / Fold change /veh HAMP (11756126_x_at) / RFU RNFT2 (11725882_a_at) / Fold change /veh RNFT2 (11725882_a_at) / RFU NR4A2 (11747474_a_at) / Fold change /veh NR4A2 (11747474_a_at) / RFU ABCC12 (11746883_a_at) / Fold change /veh ABCC12 (11746883_a_at) / RFU TMEM136 (11760407_x_at) / Fold change /veh TMEM136 (11760407_x_at) / RFU CLDN22 /// WWC2 (11732394_at) / Fold change /veh CLDN22 /// WWC2 (11732394_at) / RFU HLA-DPB1 (11760878_x_at) / Fold change /veh HLA-DPB1 (11760878_x_at) / RFU SPINT1 (11716480_a_at) / Fold change /veh SPINT1 (11716480_a_at) / RFU GAP43 (11754022_s_at) / Fold change /veh GAP43 (11754022_s_at) / RFU A4GNT (11735810_at) / Fold change /veh A4GNT (11735810_at) / RFU PRB3 (11715151_x_at) / Fold change /veh PRB3 (11715151_x_at) / RFU TUBB4B (11761932_at) / Fold change /veh TUBB4B (11761932_at) / RFU CAPN14 (11732068_a_at) / Fold change /veh CAPN14 (11732068_a_at) / RFU TMCC2 (11721928_a_at) / Fold change /veh TMCC2 (11721928_a_at) / RFU IRGQ (11745062_a_at) / Fold change /veh IRGQ (11745062_a_at) / RFU FAM174B (11720279_a_at) / Fold change /veh FAM174B (11720279_a_at) / RFU TMPRSS4 (11748680_a_at) / Fold change /veh TMPRSS4 (11748680_a_at) / RFU FAM212B (11763350_a_at) / Fold change /veh FAM212B (11763350_a_at) / RFU PLEKHG5 (11743358_a_at) / Fold change /veh PLEKHG5 (11743358_a_at) / RFU ZSCAN30 (11745921_a_at) / Fold change /veh ZSCAN30 (11745921_a_at) / RFU CMKLR1 (11741424_a_at) / Fold change /veh CMKLR1 (11741424_a_at) / RFU LOC101060620 /// MAPK8IP1 (11723275_at) / Fold change /veh LOC101060620 /// MAPK8IP1 (11723275_at) / RFU SPTSSB (11747773_x_at) / Fold change /veh SPTSSB (11747773_x_at) / RFU PRSS12 (11739890_at) / Fold change /veh PRSS12 (11739890_at) / RFU BIN1 (11741810_x_at) / Fold change /veh BIN1 (11741810_x_at) / RFU WNT11 (11732464_a_at) / Fold change /veh WNT11 (11732464_a_at) / RFU C10orf10 (11716521_a_at) / Fold change /veh C10orf10 (11716521_a_at) / RFU C5orf56 (11738089_at) / Fold change /veh C5orf56 (11738089_at) / RFU CYB561 (11721691_x_at) / Fold change /veh CYB561 (11721691_x_at) / RFU ANKRD19P (11752326_a_at) / Fold change /veh ANKRD19P (11752326_a_at) / RFU OR2T12 /// OR2T33 /// OR2T8 (11738714_s_at) / Fold change /veh OR2T12 /// OR2T33 /// OR2T8 (11738714_s_at) / RFU VCAN (11748164_a_at) / Fold change /veh VCAN (11748164_a_at) / RFU JSRP1 (11732532_at) / Fold change /veh JSRP1 (11732532_at) / RFU KRTAP10-11 (11738290_x_at) / Fold change /veh KRTAP10-11 (11738290_x_at) / RFU MYO3A (11730013_a_at) / Fold change /veh MYO3A (11730013_a_at) / RFU EBF3 (11725865_a_at) / Fold change /veh EBF3 (11725865_a_at) / RFU CAMK2N1 (11719241_x_at) / Fold change /veh CAMK2N1 (11719241_x_at) / RFU C5orf56 (11738088_a_at) / Fold change /veh C5orf56 (11738088_a_at) / RFU OLFML3 (11715873_a_at) / Fold change /veh OLFML3 (11715873_a_at) / RFU LOC100653217 /// NTM (11731650_a_at) / Fold change /veh LOC100653217 /// NTM (11731650_a_at) / RFU MAPK11 (11762145_a_at) / Fold change /veh MAPK11 (11762145_a_at) / RFU FIZ1 (11724087_x_at) / Fold change /veh FIZ1 (11724087_x_at) / RFU OASL (11726364_x_at) / Fold change /veh OASL (11726364_x_at) / RFU SOX15 (11748057_x_at) / Fold change /veh SOX15 (11748057_x_at) / RFU CD79A (11719716_a_at) / Fold change /veh CD79A (11719716_a_at) / RFU HIST1H1D (11736915_at) / Fold change /veh HIST1H1D (11736915_at) / RFU CASKIN2 (11723855_a_at) / Fold change /veh CASKIN2 (11723855_a_at) / RFU LOC730098 (11760151_x_at) / Fold change /veh LOC730098 (11760151_x_at) / RFU OR4N2 (11742367_at) / Fold change /veh OR4N2 (11742367_at) / RFU PRRT2 (11749266_a_at) / Fold change /veh PRRT2 (11749266_a_at) / RFU SNX32 (11753110_a_at) / Fold change /veh SNX32 (11753110_a_at) / RFU CDHR5 (11726645_a_at) / Fold change /veh CDHR5 (11726645_a_at) / RFU RCAN1 (11760418_a_at) / Fold change /veh RCAN1 (11760418_a_at) / RFU FAM167A (11723789_a_at) / Fold change /veh FAM167A (11723789_a_at) / RFU FAM26E (11764081_at) / Fold change /veh FAM26E (11764081_at) / RFU ISYNA1 (11749810_s_at) / Fold change /veh ISYNA1 (11749810_s_at) / RFU ACY1 (11761880_at) / Fold change /veh ACY1 (11761880_at) / RFU 11764098_at / Fold change /veh 11764098_at / RFU SAMD14 (11745864_x_at) / Fold change /veh SAMD14 (11745864_x_at) / RFU NPB (11741838_a_at) / Fold change /veh NPB (11741838_a_at) / RFU TMPRSS6 (11731388_a_at) / Fold change /veh TMPRSS6 (11731388_a_at) / RFU KRTAP10-2 (11738614_at) / Fold change /veh KRTAP10-2 (11738614_at) / RFU ARHGAP8 /// PRR5-ARHGAP8 (11727945_x_at) / Fold change /veh ARHGAP8 /// PRR5-ARHGAP8 (11727945_x_at) / RFU KRTAP5-7 /// NADSYN1 (11734609_at) / Fold change /veh KRTAP5-7 /// NADSYN1 (11734609_at) / RFU RASL12 (11751679_a_at) / Fold change /veh RASL12 (11751679_a_at) / RFU CDKN2B (11736163_a_at) / Fold change /veh CDKN2B (11736163_a_at) / RFU PRF1 (11729649_at) / Fold change /veh PRF1 (11729649_at) / RFU, ZNF638 /// ZNF638-IT1 / Fold change vs veh, ZNF638 /// ZNF638-IT1 / RFU, PANK3 / Fold change vs veh, PANK3 / RFU, SH3YL1 / Fold change vs veh, SH3YL1 / RFU, ZEB2 / Fold change vs veh, ZEB2 / RFU, NRIP1 / Fold change vs veh, NRIP1 / RFU, PTTG1IP / Fold change vs veh, PTTG1IP / RFU, CAPN2 / Fold change vs veh, CAPN2 / RFU, MED14 / Fold change vs veh, MED14 / RFU, SNORA58 / Fold change vs veh, SNORA58 / RFU, C1orf63 / Fold change vs veh, C1orf63 / RFU, LRRFIP1 / Fold change vs veh, LRRFIP1 / RFU, NDUFAF7 / Fold change vs veh, NDUFAF7 / RFU, SLC12A2 / Fold change vs veh, SLC12A2 / RFU, IBTK / Fold change vs veh, IBTK / RFU, ESF1 / Fold change vs veh, ESF1 / Fold change vs veh, TMEM50B / RFU, TAOK1 / Fold change vs veh, TAOK1 / RFU, ACBD3 / Fold change vs veh, ACBD3 / RFU, TMA16 / Fold change vs veh, TMA16 / RFU, RWDD3 / Fold change vs veh, RWDD3 / RFU, BCAT1 / Fold change vs veh, BCAT1 / RFU, EDEM3 / Fold change vs veh, EDEM3 / RFU, TMEM33 / Fold change vs veh, TMEM33 / RFU, WDR75 / Fold change vs veh, WDR75 / RFU, AHCTF1 / Fold change vs veh, AHCTF1 / RFU, TFRC / Fold change vs veh, TFRC / RFU, ZDHHC17 / Fold change vs veh, ZDHHC17 / RFU, NOM1 / Fold change vs veh, NOM1 / RFU, ARL8B / Fold change vs veh, ARL8B / RFU, ZBTB11 / Fold change vs veh, ZBTB11 / RFU, TAMM41 / Fold change vs veh, TAMM41 / RFU, KIAA1704 /// LOC100996395 / Fold change vs veh, KIAA1704 /// LOC100996395 / RFU, ING1 / Fold change vs veh, ING1 / RFU, TRMT61B / Fold change vs veh, TRMT61B / RFU, FUBP3 / Fold change vs veh, FUBP3 / RFU, TP53 / Fold change vs veh, TP53 / RFU, TNKS2 / Fold change vs veh, TNKS2 / RFU, ZFP14 / Fold change vs veh, ZFP14 / RFU, ACTR2 / Fold change vs veh, ACTR2 / RFU, PPP3R1 / Fold change vs veh, PPP3R1 / RFU, PIK3R1 / Fold change vs veh, PIK3R1 / RFU, HNRNPA1 / Fold change vs veh, HNRNPA1 / RFU, RNF170 / Fold change vs veh, RNF170 / RFU, ZNF28 / Fold change vs veh, ZNF28 / RFU, RNGTT / Fold change vs veh, RNGTT / RFU, OGT / Fold change vs veh, OGT / RFU, BRD1 / Fold change vs veh, BRD1 / RFU, MARS / Fold change vs veh, MARS / RFU, ZNF655 / Fold change vs veh, ZNF655 / RFU, FAHD1 / Fold change vs veh, FAHD1 / RFU, BDP1 / Fold change vs veh, BDP1 / RFU, LRRCC1 / Fold change vs veh, LRRCC1 / RFU, ARID1A / Fold change vs veh, ARID1A / RFU, ZNF146 / Fold change vs veh, ZNF146 / RFU, ZNF330 / Fold change vs veh, ZNF330 / RFU, GPN3 / Fold change vs veh, GPN3 / RFU, C9orf123 / Fold change vs veh, C9orf123 / RFU, N4BP2L2 / Fold change vs veh, N4BP2L2 / RFU, ARFIP1 / Fold change vs veh, ARFIP1 / RFU, FAM179B / Fold change vs veh, FAM179B / RFU, BCL10 / Fold change vs veh, BCL10 / RFU, UHRF1BP1L / Fold change vs veh, UHRF1BP1L / RFU, BET1 / Fold change vs veh, BET1 / RFU, CNOT2 / Fold change vs veh, CNOT2 / RFU, ZNF268 / Fold change vs veh, ZNF268 / Fold change vs veh, ZNF507 / RFU, DGCR2 / Fold change vs veh, DGCR2 / RFU, WDSUB1 / Fold change vs veh, WDSUB1 / Fold change vs veh, HSP90B1 /// MIR3652 / RFU, ADSS / Fold change vs veh, ADSS / RFU, GK / Fold change vs veh, GK / RFU, ZNF148 / Fold change vs veh, ZNF148 / RFU, TAF9 / Fold change vs veh, TAF9 / RFU, SLC1A5 / Fold change vs veh, SLC1A5 / RFU, SLMO2 / Fold change vs veh, SLMO2 / RFU, ABCC4 / Fold change vs veh, ABCC4 / RFU, LOC101060439 /// RAP1B / Fold change vs veh, LOC101060439 /// RAP1B / RFU, RFX7 / Fold change vs veh, RFX7 / RFU, GTPBP10 / Fold change vs veh, GTPBP10 / RFU, CNEP1R1 / Fold change vs veh, CNEP1R1 / RFU, BIVM-ERCC5 /// ERCC5 / Fold change vs veh, BIVM-ERCC5 /// ERCC5 / RFU, ILF3 / Fold change vs veh, ILF3 / RFU 11762660_at / Fold change /veh 11762660_at / RFU VCAN (11757783_s_at) / Fold change /veh VCAN (11757783_s_at) / RFU DDX43 (11728927_at) / Fold change /veh DDX43 (11728927_at) / RFU KRT8 (11758188_x_at) / Fold change /veh KRT8 (11758188_x_at) / RFU NKD1 (11759106_at) / Fold change /veh NKD1 (11759106_at) / RFU SRD5A1 (11742802_a_at) / Fold change /veh SRD5A1 (11742802_a_at) / RFU TPSAB1 /// TPSB2 (11721975_s_at) / Fold change /veh TPSAB1 /// TPSB2 (11721975_s_at) / RFU GSTM3 (11746129_a_at) / Fold change /veh GSTM3 (11746129_a_at) / RFU IL23R (11737362_x_at) / Fold change /veh IL23R (11737362_x_at) / RFU TMEM51 (11727254_a_at) / Fold change /veh TMEM51 (11727254_a_at) / RFU PIWIL2 (11732686_x_at) / Fold change /veh PIWIL2 (11732686_x_at) / RFU ORM1 (11744905_x_at) / Fold change /veh ORM1 (11744905_x_at) / RFU CCDC152 (11743942_at) / Fold change /veh CCDC152 (11743942_at) / RFU ECM1 (11717891_a_at) / Fold change /veh ECM1 (11717891_a_at) / RFU IL23R (11748794_a_at) / Fold change /veh IL23R (11748794_a_at) / RFU TNFAIP8L3 (11732012_x_at) / Fold change /veh TNFAIP8L3 (11732012_x_at) / RFU MBOAT4 (11741988_at) / Fold change /veh MBOAT4 (11741988_at) / RFU 11764193_at / Fold change /veh 11764193_at / RFU TMEM53 (11763286_at) / Fold change /veh TMEM53 (11763286_at) / RFU MAGEB2 (11727129_at) / Fold change /veh MAGEB2 (11727129_at) / RFU TMEM200A (11744735_a_at) / Fold change /veh TMEM200A (11744735_a_at) / RFU CCDC152 (11751479_a_at) / Fold change /veh CCDC152 (11751479_a_at) / RFU FAM211A (11726209_a_at) / Fold change /veh FAM211A (11726209_a_at) / RFU RGS16 (11746705_a_at) / Fold change /veh RGS16 (11746705_a_at) / RFU VCAN (11755009_s_at) / Fold change /veh VCAN (11755009_s_at) / RFU RHOB (11743442_s_at) / Fold change /veh RHOB (11743442_s_at) / RFU RGS16 (11720943_a_at) / Fold change /veh RGS16 (11720943_a_at) / RFU RGS16 (11720944_at) / Fold change /veh RGS16 (11720944_at) / RFU, VPS4B / Fold change vs veh, VPS4B / RFU, CREB1 / Fold change vs veh, CREB1 / RFU, DNAJC13 / Fold change vs veh, DNAJC13 / RFU, GNAQ / Fold change vs veh, GNAQ / RFU, CDK5R1 / Fold change vs veh, CDK5R1 / RFU, ZRANB3 / Fold change vs veh, ZRANB3 / RFU, CUL4A / Fold change vs veh, CUL4A / RFU, CCNY / Fold change vs veh, CCNY / RFU, UFL1 / Fold change vs veh, UFL1 / RFU, COG3 / Fold change vs veh, COG3 / RFU, DIAPH2 / Fold change vs veh, DIAPH2 / RFU, SKA2 / Fold change vs veh, SKA2 / RFU, AFF3 / Fold change vs veh, AFF3 / RFU, LMF1 / Fold change vs veh, LMF1 / RFU, IPO11 / Fold change vs veh, IPO11 / RFU, DFFB / Fold change vs veh, DFFB / RFU, FOXP1 / Fold change vs veh, FOXP1 / RFU, CARD8 / Fold change vs veh, CARD8 / RFU, STRN3 / Fold change vs veh, STRN3 / RFU, ADK / Fold change vs veh, ADK / RFU, RASSF2 / Fold change vs veh, RASSF2 / RFU, WIPF1 / Fold change vs veh, WIPF1 / RFU, LARP1B / Fold change vs veh, LARP1B / RFU, RASA1 / Fold change vs veh, RASA1 / RFU, RB1 / Fold change vs veh, RB1 / RFU, PPFIA1 / Fold change vs veh, PPFIA1 / RFU, MAT2A / Fold change vs veh, MAT2A / RFU, CCT5 / Fold change vs veh, CCT5 / RFU, WDR92 / Fold change vs veh, WDR92 / RFU, CUX1 / Fold change vs veh, CUX1 / RFU, TTC7A / Fold change vs veh, TTC7A / RFU, TMEM135 / Fold change vs veh, TMEM135 / RFU, DEPTOR / Fold change vs veh, DEPTOR / RFU, CPM / Fold change vs veh, CPM / RFU, DNAJB6 / Fold change vs veh, DNAJB6 / RFU, CACNA2D3 / Fold change vs veh, CACNA2D3 / RFU, DTX4 / Fold change vs veh, DTX4 / RFU, TFCP2 / Fold change vs veh, TFCP2 / RFU, GMCL1 /// GMCL1P1 / Fold change vs veh, GMCL1 /// GMCL1P1 / RFU, AEBP2 / Fold change vs veh, AEBP2 / RFU, SNHG1 /// SNORD22 /// SNORD25 /// SNORD26 /// SNORD27 /// SNORD28 /// SNORD29 /// SNORD31 / Fold change vs veh, SNHG1 /// SNORD22 /// SNORD25 /// SNORD26 /// SNORD27 /// SNORD28 /// SNORD29 /// SNORD31 / Fold change (Aza/veh), C12orf56 (ProbeSet 11735607_a_at) / Fold change (ACY-1035/veh), C12orf56 (ProbeSet 11735607_a_at) / Fold change (Aza/veh), FGFR1OP (ProbeSet 11751329_s_at) / Fold change (ACY-1035/veh), FGFR1OP (ProbeSet 11751329_s_at) / Fold change (Aza/veh), VPS36 (ProbeSet 11739960_a_at) / Fold change (ACY-1035/veh), VPS36 (ProbeSet 11739960_a_at) / RFU SYPL1 (11715823_x_at) / Fold change /veh SYPL1 (11715823_x_at) / RFU IGFBP7 (11715501_s_at) / Fold change /veh IGFBP7 (11715501_s_at) / RFU REEP3 (11722064_at) / Fold change /veh REEP3 (11722064_at) / RFU IGLL1 (11728026_x_at) / Fold change /veh IGLL1 (11728026_x_at): dose or concentration left out as unconfirmed. Particulars: ProbeSet 11725100_s_at; LIST B.

For `Nc1ccc(-c2cccs2)cc1NC(=O)c1ccc2c(c1)cc(C1CC1)n2CCN1CCOCC1` [ACY-1035], the “RFU, ESF1” value is recorded as 97.73 RFU.
